Experimental data from patent KR20210056931A, “피리메타민을 유효성분으로 포함하는 면역 관련 질환의 치료 또는 예방용 약학 조성물” (priority 2019, dated 2021).
Several values for one entry are separate records, joined by “and”; a condition that tells them apart may be missing. Identical values can stand only once.

Legend:
[1] = tested on: rheumatoid arthritis model, DBA-1J Mice [류마티스 관절염 모델]; test: Paw edema in rheumatoid arthritis animal model, dose regimen study, Experiment 6; type: in vivo, mouse; conditions: for Paw edema, HL, mean / Paw edema, HR, mean / Paw edema, HL, individual animal / Paw edema, HR, individual animal: Day 14; for Paw edema, HL, individual animal / Paw edema, HR, individual animal: listed as Py
TNF-α [2] = test: Plasma TNF-α (ELISA), Experiment 6-5; type: in vivo, mouse; conditions: for Plasma TNF-α: Day 14
TNF-α [3] = test: TNF-α expression inhibition in Raw264.7, comparison with DMARDs, Experiment 2-1; type: cell-based; conditions: for TNF-α expression: 6 h pretreatment, LPS 10 ng/mL, MTX 344 nM, HCQ 610 nM, PYR 50 ng/mL, CsA 391 ng/mL, AZA 25 ng/mL, SFZ 750 ng/mL
[4] = tested on: rheumatoid arthritis model, DBA-1J Mice [류마티스 관절염 모델]; test: Histopathological examination in rheumatoid arthritis animal model, dose regimen study, Experiment 6; type: in vivo, mouse; conditions: Day 14
TNF-α [5] = test: TNF-α expression inhibition in RAW264.7 macrophages vs PS1145 (ELISA), Experiment 1-1; type: cell-based; conditions: Fig. 1
[6] = tested on: rheumatoid arthritis model, DBA-1J Mice [류마티스 관절염 모델]; test: Paw edema in rheumatoid arthritis animal model, Experiment 5; type: in vivo, mouse
[7] = tested on: rheumatoid arthritis model, DBA-1J Mice [류마티스 관절염 모델]; test: Histopathological examination in rheumatoid arthritis animal model, Experiment 5; type: in vivo, mouse; conditions: Day 14

CCc1nc(N)nc(N)c1-c1ccc(Cl)cc1 [피리메타민, Pyrimethamine]
Paw edema, HL, mean ([1]; G7: Py 1 mg/kg/day QD IP): 0.17 mL | Paw edema, HR, mean ([1]; G7: Py 1 mg/kg/day QD IP): 0.17 mL | Paw edema, HL, individual animal ([1]; G7: Py 1 mg/kg/day QD IP): 0.18 mL and 0.19 mL and 0.17 mL and 0.12 mL and 0.14 mL | Paw edema, HR, individual animal ([1]; G7: Py 1 mg/kg/day QD IP): 0.17 mL and 0.18 mL and 0.14 mL and 0.19 mL | Paw edema, HL, mean ([1]; G8: Py 1 mg/kg/day BID PO): 0.16 mL | Paw edema, HR, mean ([1]; G8: Py 1 mg/kg/day BID PO): 0.17 mL | Paw edema, HL, individual animal ([1]; G8: Py 1 mg/kg/day BID PO): 0.14 mL and 0.13 mL and 0.17 mL and 0.19 mL and 0.20 mL | Paw edema, HR, individual animal ([1]; G8: Py 1 mg/kg/day BID PO): 0.18 mL and 0.19 mL and 0.17 mL and 0.14 mL | Paw edema, HL, mean ([1]; G9: Py 1 mg/kg/day QD PO): 0.17 mL | Paw edema, HR, mean ([1]; G9: Py 1 mg/kg/day QD PO): 0.18 mL | Paw edema, HL, individual animal ([1]; G9: Py 1 mg/kg/day QD PO): 0.13 mL and 0.20 mL and 0.17 mL and 0.19 mL | Paw edema, HR, individual animal ([1]; G9: Py 1 mg/kg/day QD PO): 0.19 mL and 0.16 mL and 0.17 mL | Paw edema, HL, mean ([1]; G10: Py 3 mg/kg/day BID PO): 0.15 mL | Paw edema, HR, mean ([1]; G10: Py 3 mg/kg/day BID PO): 0.16 mL | Paw edema, HL, individual animal ([1]; G10: Py 3 mg/kg/day BID PO): 0.16 mL and 0.20 mL and 0.13 mL and 0.15 mL | Paw edema, HR, individual animal ([1]; G10: Py 3 mg/kg/day BID PO): 0.17 mL and 0.14 mL and 0.16 mL and 0.15 mL and 0.19 mL | Paw edema, HL, mean ([1]; G11: Py 5 mg/kg QD PO): 0.18 mL | Paw edema, HR, mean ([1]; G11: Py 5 mg/kg QD PO): 0.18 mL | Paw edema, HL, individual animal ([1]; G11: Py 5 mg/kg QD PO): 0.16 mL and 0.20 mL and 0.19 mL and 0.17 mL and 0.14 mL | Paw edema, HR, individual animal ([1]; G11: Py 5 mg/kg QD PO): 0.19 mL and 0.20 mL and 0.16 mL | Paw edema, HL, mean ([1]; G12: Py 15 mg/kg/day QD PO): 0.14 mL | Paw edema, HR, mean ([1]; G12: Py 15 mg/kg/day QD PO): 0.14 mL | Paw edema, HL, individual animal ([1]; G12: Py 15 mg/kg/day QD PO): 0.19 mL and 0.13 mL and 0.11 mL and 0.14 mL | Paw edema, HR, individual animal ([1]; G12: Py 15 mg/kg/day QD PO): 0.11 mL and 0.16 mL and 0.14 mL and 0.13 mL and 0.15 mL | Paw edema (in words) ([1]; Py 15 mg/kg/day QD PO): 피리메타민 15 mg/kg/day QD 경구투여군에서만 개선 | Plasma TNF-α (TNF-α [2]; G7: Py 1 mg/kg/day QD IP): 879.4 pg/mL | Plasma TNF-α (TNF-α [2]; G8: Py 1 mg/kg/day BID PO): 867.2 pg/mL | Plasma TNF-α (TNF-α [2]; G9: Py 1 mg/kg/day QD PO): 863.5 pg/mL | Plasma TNF-α (TNF-α [2]; G10: Py 3 mg/kg/day BID PO): 818.8 pg/mL | Plasma TNF-α (TNF-α [2]; G11: Py 5 mg/kg QD PO): 763.7 pg/mL | Plasma TNF-α (TNF-α [2]; G12: Py 15 mg/kg/day QD PO): 728.0 pg/mL | Plasma TNF-α (in words) (TNF-α [2]; pyrimethamine oral groups): 농도 의존적으로 혈장 TNF-α 수치가 감소 | TNF-α expression (TNF-α [3]; 2hr): 101.3 pg/mL | TNF-α expression (TNF-α [3]; 24hr): 963.4 pg/mL | TNF-α expression inhibition compared with comparative examples (TNF-α [3]; drug treatment 8 h or 24 h, pyrimethamine 50 ng/ml): 비교예들에 비해 TNF-α의 발현량을 월등히 억제하였고 | Efficacy by histopathology compared with hydroxychloroquine and tofacitinib (in words) [4]: 히드록시클로로퀸과 토파시티닙에 비해 보다 우수한 효과 | Efficacy by histopathology compared with methotrexate (in words) [4]: 메토트렉세이트와 유사한 수준의 관절염 치료 효능 | Therapeutic efficacy by histopathology (in words) [4]: 농도 의존적으로 치료 효능을 보였다 | Bone destruction ([4]; G7: Py 1 mg/kg/day QD IP): 2.5±0.5 | Cartilage damage ([4]; G7: Py 1 mg/kg/day QD IP): 2.2±1.0 | Histopathological examination, total ([4]; G7: Py 1 mg/kg/day QD IP): 7.7±1.5 | Synovium proliferation ([4]; G7: Py 1 mg/kg/day QD IP): 3.0±0.0 | Bone destruction ([4]; G8: Py 1 mg/kg/day BID PO): 2.8±0.4 | Cartilage damage ([4]; G8: Py 1 mg/kg/day BID PO): 2.3±1.2 | Histopathological examination, total ([4]; G8: Py 1 mg/kg/day BID PO): 7.8±2.4 | Synovium proliferation ([4]; G8: Py 1 mg/kg/day BID PO): 2.7±0.8 | Bone destruction ([4]; G9: Py 1 mg/kg/day QD PO): 2.5±0.8 | Cartilage damage ([4]; G9: Py 1 mg/kg/day QD PO): 2.3±0.8 | Histopathological examination, total ([4]; G9: Py 1 mg/kg/day QD PO): 7.8±1.6 | Synovium proliferation ([4]; G9: Py 1 mg/kg/day QD PO): 3.0±0.0 | Bone destruction ([4]; G10: Py 3 mg/kg/day BID PO): 2.8±0.4 | Cartilage damage ([4]; G10: Py 3 mg/kg/day BID PO): 2.0±0.6 | Histopathological examination, total ([4]; G10: Py 3 mg/kg/day BID PO): 7.8±0.8 | Synovium proliferation ([4]; G10: Py 3 mg/kg/day BID PO): 3.0±0.0 | Bone destruction ([4]; G11: Py 5 mg/kg QD PO): 2.0±0.9 | Cartilage damage ([4]; G11: Py 5 mg/kg QD PO): 1.7±0.8 | Histopathological examination, total ([4]; G11: Py 5 mg/kg QD PO): 6.7±1.5 | Synovium proliferation ([4]; G11: Py 5 mg/kg QD PO): 3.0±0.0 | Bone destruction ([4]; G12: Py 15 mg/kg/day QD PO): 2.2±0.4 | Cartilage damage ([4]; G12: Py 15 mg/kg/day QD PO): 1.5±0.5 | Histopathological examination, total ([4]; G12: Py 15 mg/kg/day QD PO): 6.3±0.8 | Synovium proliferation ([4]; G12: Py 15 mg/kg/day QD PO): 2.7±0.5 | TNF-α expression (TNF-α [5]; pyrimethamine 2, 10, 50 ng/ml): TNF-α의 발현량이 현저하게 줄어들었으며 | TNF-α expression compared with PS1145 (TNF-α [5]; pyrimethamine 10 or 50 ng/ml vs PS1145 20 uM): 비교예(PS1145)에 비해 TNF-α의 발현이 보다 현저하게 줄어드는 | Paw edema, LEFT ([6]; Day 0, G4: Py 10 mg/kg/day PO): 0.11 ± 0.01 mL | Paw edema, RIGHT ([6]; Day 0, G4: Py 10 mg/kg/day PO): 0.10 ± 0.00 mL | Paw edema, LEFT ([6]; Day 0, G5: Py 30 mg/kg/day PO): 0.11 ± 0.02 mL | Paw edema, RIGHT ([6]; Day 0, G5: Py 30 mg/kg/day PO): 0.10 ± 0.01 mL | Paw edema, LEFT ([6]; Day 14, G4: Py 10 mg/kg/day PO): 0.15 ± 0.03 mL | Paw edema, RIGHT ([6]; Day 14, G4: Py 10 mg/kg/day PO): 0.12 ± 0.01 mL | Paw edema, LEFT ([6]; Day 14, G5: Py 30 mg/kg/day PO): 0.11 ± 0.03 mL | Paw edema, RIGHT ([6]; Day 14, G5: Py 30 mg/kg/day PO): 0.11 ± 0.02 mL | Bone destruction ([7]; G4: Py 10 mg/kg/day PO): 0.9±0.9 | Cartilage damage ([7]; G4: Py 10 mg/kg/day PO): 1.3±1.0 | Histopathological examination, total ([7]; G4: Py 10 mg/kg/day PO): 3.6±2.7 | Synovium proliferation ([7]; G4: Py 10 mg/kg/day PO): 1.4±1.1 | Bone destruction ([7]; G5: Py 30 mg/kg/day PO): 0.4±0.8 | Cartilage damage ([7]; G5: Py 30 mg/kg/day PO): 0.3±0.5 | Histopathological examination, total ([7]; G5: Py 30 mg/kg/day PO): 1.1±1.5 | Synovium proliferation ([7]; G5: Py 30 mg/kg/day PO): 0.4±0.8 | Efficacy by histopathology compared with methotrexate (in words) ([7]; Py 10 and 30 mg/kg/day PO): 메토트렉세이트와 비교할 때에도 보다 우수한 효과 | Therapeutic efficacy by histopathology (in words) ([7]; Py 10 and 30 mg/kg/day PO): 농도 의존적으로 치료 효능을 보였으며
